Structures are written as SMILES.

The term logP denotes a log measure of how a compound divides between an organic and an aqueous phase. Turning to `CN1CC=C(c2ccc(Cl)cc2)CC1`, the logP was 3.32.
The result for `CCN1CC=C(c2ccccc2)CC1` reads 3.18; that for `CC1=C(c2ccccc2)CCN(C)C1`, 3.18; that for `C1=C(c2ccccc2)CCNC1`, 1.99.
`CN1CC=C(c2ccc(N)cc2)CC1` registered a logP of 1.48.
Regarding `Fc1ccc(C2=CCNCC2)cc1`, the log partition coefficient (logP) came out at 2.37.
As for `C1=C(c2ccccc2)CCN(CCc2ccccc2)C1`, the logP came to 3.98.
The molecule `CN1CC=C(c2cccc(N)c2)CC1` showed a logP of 1.47.
`OCCN1CC=C(c2ccccc2)CC1`: the logP amounted to 2.
The same measure for `CN1CC=C(c2cccs2)CC1`: 2.51; for `Cc1ccccc1C1=CCN(C)CC1`: 3.1; for `CN1CC=C(c2ccncc2)CC1`: 1.25.

Values taken from the SangsterLogP compilation.
